Laboratory results as given in PubChem BioAssay AID1918996 (Molecular Pharmacology Branch, DTP, NCI, 2023).
Several values for one entry are separate records, joined by “and”; a condition that tells them apart may be missing. Equal entries are not always repeated.

Tested on: 349418-098-R-PDC complex spheroid growth
Assay: Anticancer human tumor 349418-098-R-PDC patient-derived lung adenocarcinoma cell line growth inhibition [AhR]
Conditions: for viability, T/C: stronger effect = lower value
Procedure, shortened: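 Spheroids combined tumor cells with HUVEC endothelial cells and human MSCs as stroma. AhR antagonists were paired with standard or investigational drugs, each dosed in half-log steps down from near clinical Cmax, or from 10 microM where Cmax was unknown.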

[1] = curve of first compound, second compound 0.1 µM
[2] = curve of first compound, second compound 0.316 µM
[3] = curve of first compound, second compound 1 µM
[4] = curve of first compound, second compound 3.16 µM
[5] = curve of first compound, second compound 10 µM
[6] = second compound 0.1 µM, first compound 0.0316 µM
[7] = second compound 0.1 µM, first compound 0.1 µM
[8] = second compound 0.316 µM, first compound 0.0316 µM
[9] = second compound 0.316 µM, first compound 0.1 µM
[10] = second compound 1 µM, first compound 0.0316 µM
[11] = second compound 1 µM, first compound 0.1 µM
[12] = second compound 3.16 µM, first compound 0.0316 µM
[13] = second compound 3.16 µM, first compound 0.1 µM
[14] = second compound 10 µM, first compound 0.0316 µM
[15] = second compound 10 µM, first compound 0.1 µM
[16] = second compound 0.1 µM, first compound 0.000316 µM
[17] = second compound 0.1 µM, first compound 0.001 µM
[18] = second compound 0.1 µM, first compound 0.00316 µM
[19] = second compound 0.1 µM, first compound 0.01 µM
[20] = second compound 0.316 µM, first compound 0.000316 µM
[21] = second compound 0.316 µM, first compound 0.001 µM
[22] = second compound 0.316 µM, first compound 0.00316 µM
[23] = second compound 0.316 µM, first compound 0.01 µM
[24] = second compound 1 µM, first compound 0.000316 µM
[25] = second compound 1 µM, first compound 0.001 µM
[26] = second compound 1 µM, first compound 0.00316 µM
[27] = second compound 1 µM, first compound 0.01 µM
[28] = second compound 3.16 µM, first compound 0.000316 µM
[29] = second compound 3.16 µM, first compound 0.001 µM
[30] = second compound 3.16 µM, first compound 0.00316 µM
[31] = second compound 3.16 µM, first compound 0.01 µM
[32] = second compound 10 µM, first compound 0.000316 µM
[33] = second compound 10 µM, first compound 0.001 µM
[34] = second compound 10 µM, first compound 0.00316 µM
[35] = second compound 10 µM, first compound 0.01 µM
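Also: spheroids exposed to agents for seven days before luminescence viability read.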

`NS(=O)(=O)OCC1CC(n2ccc3c(NC4CCc5ccccc54)ncnc32)CC1O` (centres undefined) + Cc1cncc(-c2nc(NCCc3c[nH]c4ccccc34)c3ncn(C(C)C)c3n2)c1 showed an IC50 [1] of 192 nM, an IC50 [2] of 161 nM and an IC50 [3] of 142 nM. The IC50 [4] was < 31.6 nM, the IC50 [5] was < 31.6 nM and the viability, T/C [6] was 101%. For the same molecule, the viability, T/C [7] was 69.6%, the viability, T/C (second compound 0.1 µM, first compound 0.316 µM) was 35.1% and the viability, T/C (second compound 0.1 µM, first compound 1 µM) was 14.4%. For the same molecule, the viability, T/C (second compound 0.1 µM, first compound 3.16 µM) was 9.84%, the viability, T/C (second compound 0.1 µM, first compound 10 µM) was 4.65% and the viability, T/C [8] was 89.1%. The viability, T/C [9] was 71.6%, the viability, T/C (second compound 0.316 µM, first compound 0.316 µM) was 19% and the viability, T/C (second compound 0.316 µM, first compound 1 µM) was 12.2%. The viability, T/C (second compound 0.316 µM, first compound 3.16 µM) was 6.13%, the viability, T/C (second compound 0.316 µM, first compound 10 µM) was 4.07% and the viability, T/C [10] was 86.2%. For the same molecule, the viability, T/C [11] was 63.3%, the viability, T/C (second compound 1 µM, first compound 0.316 µM) was 19.2% and the viability, T/C (second compound 1 µM, first compound 1 µM) was 12.1%. It also gave a viability, T/C (second compound 1 µM, first compound 3.16 µM) of 6.14%, a viability, T/C (second compound 1 µM, first compound 10 µM) of 4.69% and a viability, T/C [12] of 28.4%. For the same molecule, the viability, T/C [13] was 26.2%, the viability, T/C (second compound 3.16 µM, first compound 0.316 µM) was 18.7% and the viability, T/C (second compound 3.16 µM, first compound 1 µM) was 7.99%. It also gave a viability, T/C (second compound 3.16 µM, first compound 3.16 µM) of 3.97%, a viability, T/C (second compound 3.16 µM, first compound 10 µM) of 3.43% and a viability, T/C [14] of 2.2%. For the same molecule, the viability, T/C [15] was 1.97%, the viability, T/C (second compound 10 µM, first compound 0.316 µM) was 1.34% and the viability, T/C (second compound 10 µM, first compound 1 µM) was 0.88%. The viability, T/C (second compound 10 µM, first compound 3.16 µM) was 1.03% and the viability, T/C (second compound 10 µM, first compound 10 µM) was 0.56%.

In the case of `CCN(c1cc(-c2ccc(CN3CCOCC3)cc2)cc(C(=O)NCc2c(C)cc(C)[nH]c2=O)c1C)C1CCOCC1` + Cc1cncc(-c2nc(NCCc3c[nH]c4ccccc34)c3ncn(C(C)C)c3n2)c1, the IC50 [1] is reported as > 3000 nM, the IC50 [2] is reported as > 3000 nM and the IC50 [3] is reported as > 3000 nM. For the same molecule, the IC50 [4] was < 9.49 nM, the IC50 [5] was < 9.49 nM and the viability, T/C (second compound 0.1 µM, first compound 0.00949 µM) was 98.9%. The viability, T/C (second compound 0.1 µM, first compound 0.03 µM) was 85%, the viability, T/C (second compound 0.1 µM, first compound 0.0949 µM) was 98% and the viability, T/C (second compound 0.1 µM, first compound 0.3 µM) was 96.5%. The viability, T/C (second compound 0.1 µM, first compound 0.949 µM) was 97.7%, the viability, T/C (second compound 0.1 µM, first compound 3 µM) was 80.5% and the viability, T/C (second compound 0.316 µM, first compound 0.00949 µM) was 105%. The viability, T/C (second compound 0.316 µM, first compound 0.03 µM) was 94.2%, the viability, T/C (second compound 0.316 µM, first compound 0.0949 µM) was 103% and the viability, T/C (second compound 0.316 µM, first compound 0.3 µM) was 103%. It also gave a viability, T/C (second compound 0.316 µM, first compound 0.949 µM) of 105%, a viability, T/C (second compound 0.316 µM, first compound 3 µM) of 76.5% and a viability, T/C (second compound 1 µM, first compound 0.00949 µM) of 82.8%. The viability, T/C (second compound 1 µM, first compound 0.03 µM) was 94%, the viability, T/C (second compound 1 µM, first compound 0.0949 µM) was 81% and the viability, T/C (second compound 1 µM, first compound 0.3 µM) was 74.5%. The viability, T/C (second compound 1 µM, first compound 0.949 µM) was 77.2%, the viability, T/C (second compound 1 µM, first compound 3 µM) was 71.9% and the viability, T/C (second compound 3.16 µM, first compound 0.00949 µM) was 19.9%. It also gave a viability, T/C (second compound 3.16 µM, first compound 0.03 µM) of 17.9%, a viability, T/C (second compound 3.16 µM, first compound 0.0949 µM) of 19.6% and a viability, T/C (second compound 3.16 µM, first compound 0.3 µM) of 15.1%. For the same molecule, the viability, T/C (second compound 3.16 µM, first compound 0.949 µM) was 14.2%, the viability, T/C (second compound 3.16 µM, first compound 3 µM) was 12.3% and the viability, T/C (second compound 10 µM, first compound 0.00949 µM) was 3.07%. For the same molecule, the viability, T/C (second compound 10 µM, first compound 0.03 µM) was 3.18%, the viability, T/C (second compound 10 µM, first compound 0.0949 µM) was 2.66% and the viability, T/C (second compound 10 µM, first compound 0.3 µM) was 2.82%. For the same molecule, the viability, T/C (second compound 10 µM, first compound 0.949 µM) was 2.27% and the viability, T/C (second compound 10 µM, first compound 3 µM) was 1.62%.

`O=C(C=Cc1cccc(S(=O)(=O)Nc2ccccc2)c1)NO` was tested, and the viability, T/C (compound 0.0316 µM) was 81.9% and 112% and 124%, the viability, T/C (compound 0.1 µM) was 83.5% and 128% and 78% and the viability, T/C (compound 0.316 µM) was 60.7% and 73.3% and 78.8%. For the same molecule, the viability, T/C (compound 1 µM) was 48.6% and 42.6% and 41.5%, the viability, T/C (compound 3.16 µM) was 13.1% and 11.2% and 10.6% and the viability, T/C (compound 10 µM) was 2.17% and 1.85% and 2.27%. The IC50 (curve of compound) was 720 nM and 731 nM and 657 nM.

In the case of `Cn1ncnc1C1c2n[nH]c(=O)c3cc(F)cc(c23)NC1c1ccc(F)cc1` (centres undefined) + Cc1ccccc1N=Nc1ccc(NC(=O)c2ccnn2C)c(C)c1, the IC50 [1] is reported as > 100 nM, the IC50 [2] is reported as > 100 nM and the IC50 [3] is reported as > 100 nM. The IC50 [4] was > 100 nM, the IC50 [5] was > 100 nM and the viability, T/C [16] was 106%. It also gave a viability, T/C [17] of 93.8%, a viability, T/C [18] of 118% and a viability, T/C [19] of 56.1%. The viability, T/C [6] was 99.1%, the viability, T/C [7] was 67.4% and the viability, T/C [20] was 110%. For the same molecule, the viability, T/C [21] was 87.2%, the viability, T/C [22] was 113% and the viability, T/C [23] was 74.1%. The viability, T/C [8] was 115%, the viability, T/C [9] was 71.6% and the viability, T/C [24] was 82.9%. The viability, T/C [25] was 102%, the viability, T/C [26] was 106% and the viability, T/C [27] was 89.9%. It also gave a viability, T/C [10] of 94.2%, a viability, T/C [11] of 80.6% and a viability, T/C [28] of 72.1%. For the same molecule, the viability, T/C [29] was 90.2%, the viability, T/C [30] was 98.8% and the viability, T/C [31] was 79%. For the same molecule, the viability, T/C [12] was 71.4%, the viability, T/C [13] was 63.6% and the viability, T/C [32] was 61.5%. It also gave a viability, T/C [33] of 71.8%, a viability, T/C [34] of 76.2% and a viability, T/C [35] of 51.2%. It also gave a viability, T/C [14] of 70.8% and a viability, T/C [15] of 55.6%.

With `O=C(c1cc(Cc2n[nH]c(=O)c3ccccc23)ccc1F)N1CCN(C(=O)C2CC2)CC1` the viability, T/C (compound 0.0316 µM) was 99.3% and 78.6% and 91.4%, the viability, T/C (compound 0.1 µM) was 96.3% and 102% and 76.1% and the viability, T/C (compound 0.316 µM) was 102% and 59% and 78.5%. The viability, T/C (compound 1 µM) was 92.2% and 95.7% and 68.9%, the viability, T/C (compound 3.16 µM) was 92.4% and 52.9% and 67.8% and the viability, T/C (compound 10 µM) was 64.2% and 30% and 36.2%. The IC50 (curve of compound) was > 10000 nM and 3670 nM and 5620 nM.

`CC[C@@]1(O)C(=O)OCc2c1cc1n(c2=O)Cc2cc3c(CN(C)C)c(O)ccc3nc2-1` + Cc1cncc(-c2nc(NCCc3c[nH]c4ccccc34)c3ncn(C(C)C)c3n2)c1 gave an IC50 [1] of 15.3 nM, an IC50 [2] of 14.1 nM and an IC50 [3] of 14.4 nM. For the same molecule, the IC50 [4] was < 0.316 nM, the IC50 [5] was < 0.316 nM and the viability, T/C [16] was 102%. The viability, T/C [17] was 93.9%, the viability, T/C [18] was 91.6% and the viability, T/C [19] was 60.7%. For the same molecule, the viability, T/C [6] was 29.4%, the viability, T/C [7] was 6.14% and the viability, T/C [20] was 87.3%. It also gave a viability, T/C [21] of 94%, a viability, T/C [22] of 86.4% and a viability, T/C [23] of 60.3%. The viability, T/C [8] was 23.8%, the viability, T/C [9] was 6.37% and the viability, T/C [24] was 90.6%. The viability, T/C [25] was 93.5%, the viability, T/C [26] was 84.2% and the viability, T/C [27] was 62%. The viability, T/C [10] was 24.5%, the viability, T/C [11] was 7.22% and the viability, T/C [28] was 24.8%. The viability, T/C [29] was 19.5%, the viability, T/C [30] was 21% and the viability, T/C [31] was 14.4%. For the same molecule, the viability, T/C [12] was 10.1%, the viability, T/C [13] was 5.91% and the viability, T/C [32] was 1.41%. The viability, T/C [33] was 1.47%, the viability, T/C [34] was 1.56% and the viability, T/C [35] was 1.49%. The viability, T/C [14] was 1.32% and the viability, T/C [15] was 1.19%.
